# Experimental data from ChEMBL document CHEMBL4665757, “Design and synthesis of dual active neovibsanin derivatives based on a chemical structure merging method” (Bioorg Med Chem Lett, 2020).
# Calls of active or inactive are those of the source. The rule behind the calls is not given here.
# What was measured:
# PC-12 [1] = assay: Induction of neurite outgrowth in rat PC12 cells at 30 uM incubated for 4 days by phase contrast microscopic analysis; assay type: functional, cell-based; conditions: time 4.0 day
# PC-12 [2] = assay: Induction of neurite outgrowth in rat PC12 cells at 0.3 to 30 uM incubated for 4 days in presence of NGF by phase contrast microscopic analysis; assay type: functional, cell-based; conditions: dose microM 0.3-30, time 4.0 day
# [3] = Solubility in water; assay type: physicochemical; conditions: buffer
# PC-12 [4] = assay: Induction of neurite outgrowth in rat PC12 cells at 30 uM incubated for 4 days in presence of NGF by phase contrast microscopic analysis; assay type: functional, cell-based; conditions: time 4.0 day
solubility [3],SMILES,Activity (PC-12 [1]),Activity (PC-12 [2]),Activity (PC-12 [4])
,COc1ccc(/C=C/[C@@H]2CCC=C[C@H]2c2ccc(OC)c(OC)c2)cc1OC,Active,,
Insoluble,COc1ccc(/C=C/[C@@H]2C[C@@]34OC(C)(O)C[C@@H]3OCC4=C[C@H]2c2ccc(OC)c(OC)c2)cc1OC (mixture of isomers),Active,Active,
,COC1(C)C[C@@H]2OCC3=CCCC[C@]32O1 (stereo not given in full),,,Active
